Measured values published in patent publication US4395400A, “Nonapeptide, a process for its preparation, an agent containing it and its use” (Hoechst Aktiengesellschaft, priority 1980, dated 1983).

Experiments:
[1] = absorption from the gastro-intestinal tract; type: in vivo; details: humans
Procedure: The preferred method of administration in humans is intranasal administration, since absorption of the compound from the gastro-intestinal tract is only slight and parenteral administration is inappropriate for the patient. About 0.1 ml of a buffer solution, in which the necessary quantity of the active compound is dissolved, is sprayed into the nose via a spray jet, by means of a dosing atomizer.

[2] = solubility in aqueous buffer solutions; type: physicochemical
Source text: This makes the compound suitable for intranasal administration, for which, as shown by experience, solubility can be the limiting factor.

[3] = system: gonadoliberin biological action; details: D-aminoacid in position 6 with tert.-butyl type protective group; cited from earlier work

absorption from the gastro-intestinal tract [1]	solubility in aqueous buffer solutions ([2]; aqueous buffer solutions)	solubility compared with other gonadoliberin analogs ([2]; versus analogs of comparable effectiveness, particularly the D-Trp^6 or D-His(Bzl)^6 analogs)	Structure (SMILES)	biological action of position-6 substituted gonadoliberin derivative [3]
only slight	good solubility	appreciably greater	CCNC(=O)[C@@H]1CCCN1C(=O)[C@H](CCCNC(=N)N)NC(=O)[C@H](CC(C)C)NC(=O)[C@@H](CCCC(=O)OC(C)(C)C)NC(=O)[C@H](Cc1ccc(O)cc1)NC(=O)[C@H](CO)NC(=O)[C@H](Cc1c[nH]c2ccccc12)NC(=O)[C@H](Cc1c[nH]cn1)NC(=O)[C@@H]1CCC(=O)N1 [nonapeptide]	
			CC(C)(C)OC[C@@H](N)C(=O)O [O-tert.-butyl-D-serine]	strongest biological action
